Among the data in patent publication US6979686B1, “Substituted pyrazoles as p38 kinase inhibitors” (Pharmacia Corporation, priority 2001, dated 2005) are IC50 values, retold here.

The target in this assay is T1, human p38 kinase alpha (Homo sapiens, UniProt Q16539).
T1 construct: GST (N, cleaved yes); made in house; host or cells: E. coli DH10B
T1 sequence (Q16539 whole entry): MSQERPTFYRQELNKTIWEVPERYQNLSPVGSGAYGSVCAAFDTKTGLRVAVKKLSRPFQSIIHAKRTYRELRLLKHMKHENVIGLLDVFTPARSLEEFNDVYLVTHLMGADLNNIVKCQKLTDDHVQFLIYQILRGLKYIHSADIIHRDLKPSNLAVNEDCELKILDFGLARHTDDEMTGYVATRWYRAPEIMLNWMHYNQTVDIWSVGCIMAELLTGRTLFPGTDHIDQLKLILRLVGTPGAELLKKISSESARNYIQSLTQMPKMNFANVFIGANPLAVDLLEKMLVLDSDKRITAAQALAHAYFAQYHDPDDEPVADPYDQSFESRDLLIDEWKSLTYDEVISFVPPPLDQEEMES
Put plainly: p38 kinase in vitro assay, phosphorylation of biotinylated PHAS-I with 32P-ATP. It is filed as biochemical. The note with it: in vitro P38-alpha kinase; read-out: P38 alpha kinase IC50.
`Cc1c(-c2ccncc2)c(-c2ccc(F)cc2)nn1CC(=O)NCc1ccco1` [Example B-2282]: the IC50 was found to be 910 nM.
As to `Cc1c(-c2ccncc2)c(-c2ccc(F)cc2)nn1CC(=O)NC[C@@H]1CCCO1` [Example B-2283], the IC50 came to 40 nM.
With `Cc1c(-c2ccncc2)c(-c2ccc(F)cc2)nn1CC(=O)NCCN1CCOCC1` [Example B-2284], the IC50 stood at 4610 nM.
Then `Cc1c(-c2ccncc2)c(-c2ccc(F)cc2)nn1CC(=O)NCc1cccc2ccccc12` [Example B-2285], with 2290 nM; and `Cc1c(-c2ccncc2)c(-c2ccc(F)cc2)nn1CC(=O)NCCCCCCN(C)C` [Example B-2287], with 2560 nM; and `Cc1c(-c2ccncc2)c(-c2ccc(F)cc2)nn1CC(=O)NCCCCN1CCCC1` [Example B-2288], with 6510 nM.
As for `Cc1c(-c2ccncc2)c(-c2ccc(F)cc2)nn1CC(=O)NCc1ccc(C(C)(C)C)cc1` [Example B-2290], the IC50 turned out to be 2370 nM.
Under `Cc1c(-c2ccncc2)c(-c2ccc(F)cc2)nn1CC(=O)NCCc1cccnc1` [Example B-2291] stands 19 nM.
For the compound `COCCNC(=O)Cn1nc(-c2ccc(F)cc2)c(-c2ccncc2)c1C` [Example B-2292], the IC50 was determined as 8820 nM.
Then `CCCCNC(=O)Cn1nc(-c2ccc(F)cc2)c(-c2ccncc2)c1C` [Example B-2293], with 2110 nM.
Turning to `Cc1c(-c2ccncc2)c(-c2ccc(F)cc2)nn1CC(=O)NCCN(C)C` [Example B-2294], the IC50 was found to be 1680 nM.
For the compound `COC(=O)CCCNC(=O)Cn1nc(-c2ccc(F)cc2)c(-c2ccncc2)c1C` [Example B-2295], the IC50 was found to be 1790 nM.
Regarding `COc1ccc2[nH]cc(CCNC(=O)Cn3nc(-c4ccc(F)cc4)c(-c4ccncc4)c3C)c2c1` [Example B-2296], the IC50 came out at 17300 nM.
Consider `COc1cc(CNC(=O)Cn2nc(-c3ccc(F)cc3)c(-c3ccncc3)c2C)cc(OC)c1OC` [Example B-2297], for which the IC50 was 3590 nM.
As for `Cc1ccc(S(=O)(=O)NCCNC(=O)Cn2nc(-c3ccc(F)cc3)c(-c3ccncc3)c2C)cc1` [Example B-2299], the IC50 worked out at 1970 nM.
As to `Cc1c(-c2ccncc2)c(-c2ccc(F)cc2)nn1CC(=O)NCCCCc1ccccc1` [Example B-2300], the IC50 came out at 70 nM.
Turning to `COC(=O)CCNC(=O)Cn1nc(-c2ccc(F)cc2)c(-c2ccncc2)c1C` [Example B-2301], the IC50 came out at 180 nM.
For the compound `Cc1c(-c2ccncc2)c(-c2ccc(F)cc2)nn1CC(=O)NCCc1ccc([N+](=O)[O-])cc1` [Example B-2302], the IC50 turned out to be 1000 nM.
For `Cc1c(-c2ccncc2)c(-c2ccc(F)cc2)nn1CC(=O)NCCc1ccc(Cl)c(Cl)c1` [Example B-2303], the IC50 is 11 nM.
As for `Cc1c(-c2ccncc2)c(-c2ccc(F)cc2)nn1CC(=O)NCCCN(C)C` [Example B-2304], the IC50 is 1410 nM.
Take `COc1cc(CNC(=O)Cn2nc(-c3ccc(F)cc3)c(-c3ccncc3)c2C)cc(OC)c1` [Example B-2305]: the IC50 is 540 nM.
On to `Cc1c(-c2ccncc2)c(-c2ccc(F)cc2)nn1CC(=O)NCCCSC1CCCCC1` [Example B-2306], for which the IC50 amounted to 5880 nM.
Turning to `Cc1c(-c2ccncc2)c(-c2ccc(F)cc2)nn1CC(=O)NCCCN1CCCC1` [Example B-2307], the IC50 was 2290 nM.
In the case of `Cc1c(-c2ccncc2)c(-c2ccc(F)cc2)nn1CC(=O)NCCc1csc2ccccc12` [Example B-2308], the IC50 amounted to 660 nM.
As for `Cc1c(-c2ccncc2)c(-c2ccc(F)cc2)nn1CC(=O)NCC(=O)OC(C)(C)C` [Example B-2309], the IC50 stood at 290 nM.
On to `CCNC(=O)Cn1nc(-c2ccc(F)cc2)c(-c2ccncc2)c1C` [Example B-2311], for which the IC50 is 7180 nM.
Under `CCSCCNC(=O)Cn1nc(-c2ccc(F)cc2)c(-c2ccncc2)c1C` [Example B-2312] stands 2930 nM; under `Cc1c(-c2ccncc2)c(-c2ccc(F)cc2)nn1CC(=O)NCCCOC(C)C` [Example B-2313], 42300 nM.
Turning to `Cc1c(-c2ccncc2)c(-c2ccc(F)cc2)nn1CC(=O)NCCC#N` [Example B-2314], the 50% inhibitory concentration (IC50) stood at 11000 nM.

Usually IC50 stands for the concentration at which inhibition is half-maximal.
